What was measured:
human GLP-1R receptor = human GLP-1R receptor (Homo sapiens (Human), UniProt P43220, L260F); assay: CHOK1 GLP-1R cAMP Assay; type: cell-based; settings: CHO-K1 cell line stably expressing human GLP-1R; HTRF cAMP; agonist activity
Description: A cell line stably expressing the human GLP-1R receptor (NM 002062.5, including the naturally-occurring variant Leu260Phe) in a CHO-K1 (ATCC® CCL-61™) was used for assay.
GLP-1 receptor mediated agonist activity was determined in a cell based assay measuring cyclic adenosine monophosphate (cAMP) levels in cells using Homogeneous Time-Resolved Fluorescence (HTRF) cAMP detection kit (CisBio catalog #62AM4PEC, cAMP Gs Dynamic range kit). The cAMP detection method is based on a competitive immunoassay, in which cAMP produced by the cells and cAMP labeled with the dye d2 compete for binding to a Europium-Cryptate-labeled anti-cAMP antibody. The specific HTRF signal is inversely proportional to the concentration of cAMP.
Compounds were added to individual well in 384 well-assay plates (Greiner #784076) using an Echo (LabCyte) dispenser from 10 mM stocks. Varying concentration of compounds were added to wells, and DMSO was used to normalize each well to a volume of 100 nL. A dose response curve of GLP1(7-36)NH2 (Bachem H-6795) was included in each run. 5 μL of cAMP concentration response standards are applied in specified wells in the assay plates. Cryo-preserved cells are thawed and resuspended in assay buffer pre-heated to 37° C. (20 mM HEPES pH 7.4, lx Hank's Balanced Salt Solution (HBSS, Life Technologies #14065) supplemented with 0.1% (w/v) bovine serum albumin (Sigma, A-7030). Cells were centrifuged at 250*g for 5 min at rt, and resuspended in room tempered assay buffer to a final density of 0.16*10^6 cell/mL, to deliver 800 cells/well. 5 μL of assay buffer with 1 mM 3-isobutyl-1-methylxanthin (IBMX; Sigma cat I-7018) was dispensed per well in assay plates using a multidrop combi (Thermo Scientific) subsequently 5 μL of cell suspension was distributed to relevant wells in the assay using a multidrop dispenser. Assay plates were incubated 20 min at rt.
Detection reagents, Europium-Cryptate-labeled anti-cAMP antibody and cAMP labeled with the dye d2, are diluted in lysis buffer, provided by the manufacturer. 5 μL of each detection reagent is supplemented to each assay well using a multidrop dispenser. Assay plates are incubated in the dark for at least one h. The HTRF signal is measured using the HTRF module (excitation: 337 nm, emission A: 665 nm and emission B: 620 nm) in Pherastar FSX (BMG Labtech).
Raw data were converted to pM cAMP using the cAMP standard curve included in each run. Converted data were further analyzed in Genedata Screener (Genedata) and EC50 determinations were made from agonist dose-response curves analyzed with a curve fitting program using a 4-parameter logistic dose response equation (Equation y=A+((B−A)/1+((C/x)^D))) where A is no stimulation, B is full stimulation, C is the EC50 and D is the Hill slope). The percent effect was determined relative to a saturating concentration of a full GLP-1R agonist (GLP1(7-36)NH2 has 100% effect in this assay setup).

[1] = target: GLP-1R in EndoC-βH1 cells (Homo sapiens (Human), UniProt P43220); assay: EndoC cAMP Accumulation Assay; type: cell-based; settings: EndoC-βH1 human pancreatic beta cell line; HTRF cAMP accumulation
From the text: EndoC cAMP Accumulation Assay
A HTRF cAMP assay (cAMP Gs dynamic kit; CisoBio Cat #62AM4PEJ) was used to identify agonists of GLP-1R in a pancreatic insulinoma cell line (EndoC-βH1). […] EndoC-βH1 cells have detectable GLP-1R messenger ribonucleic acid (mRNA) as detected by quantitative polymerase chain reaction (qPCR). […] The EndoC-βH1 cell line is a valid model of human beta cells and applicable for screenings to identify novel drug target candidates (Mol. Metab., 2018, 8, 144-157). CisBio HTRF cAMP kits are based on a competitive immunoassay using cryptate-labelled anti-cAMP antibody and d2-labeled cAMP. The detection kit is intended for the direct quantitative determination of cAMP. The specific signal (i.e. energy transfer) is inversely proportional to the concentration of cAMP in the standard or sample. Test compounds (10 mM in DMSO) were diluted into assay buffer (HBSS (Sigma #H8264) supplemented with 25 mM HEPES (Gibco #15630, pH 7.4), 0.1% BSA (Sigma #A3059) and 0.5 mM IBMX (Sigma #17018) included fresh on the day of the assay) into 96 well U-bottom plates (Greiner #650201). Diluted compounds were transferred to ECHO source polypropylene plates (Labcyte #P-05525) and dose response curves were dispensed acoustically using ECHO 550 into black shallow-well u-bottom 384-well HTRF Assay Plates (Corning 4514).
Cryovials of EndoC-H1 (supplied at 1×10e^7 cells/vial) were used directly for screening. The cryovials and were removed from N2 (1) and thawed rapidly in a 37° C. water bath. The cells were resuspended in assay buffer and centrifuged at 300 g for 5 min. Cells were resuspended in assay buffer at the appropriate concentration, typically at 12e5 cells per mL (3000 cells per well, dependent on cell batch) and 2.5 μL diluted cells were added to all wells of destination plate by Multidrop combi reagent dispenser (Thermofisher). The plates were incubated at rt for 30 min. The assay was stopped by adding 2.5 μL anti-cAMP cryptate solution to all wells and 2.5 μL cAMP-d2 solution (both diluted 1:20 in lysis buffer) to columns 1-22 by Combi drop. A volume of 2.5 μL cAMP-d2 solution was added to wells E23 to P24 and 2.5 μL lysis buffer added to wells A23 to D24 by multichannel pipette. The plates were incubated at rt for 1 h and read on an Envision plate reader using excitation wavelength of 320 nm and emission of […] and 660 nm.
Raw data from Envision is converted to % DeltaF according to the manufacturer's instructions. Dose response curves are analysed via 4-Parameter Logistical Analysis and assay plate Z′ values obtained. Samples are graphed as percentage (%) activation plots compared to GIP (1-42, Bachem H-5645) with assay window defined by negative control as basal cell cAMP levels and positive control are defined by maximum GIP (82.5 nM) signal. GLP1 (7-36 amide, Bachem H-6795) dose response curve was included on all plates.

GLP-1R in EndoC-βH1 cells, sequence (P43220 24-463): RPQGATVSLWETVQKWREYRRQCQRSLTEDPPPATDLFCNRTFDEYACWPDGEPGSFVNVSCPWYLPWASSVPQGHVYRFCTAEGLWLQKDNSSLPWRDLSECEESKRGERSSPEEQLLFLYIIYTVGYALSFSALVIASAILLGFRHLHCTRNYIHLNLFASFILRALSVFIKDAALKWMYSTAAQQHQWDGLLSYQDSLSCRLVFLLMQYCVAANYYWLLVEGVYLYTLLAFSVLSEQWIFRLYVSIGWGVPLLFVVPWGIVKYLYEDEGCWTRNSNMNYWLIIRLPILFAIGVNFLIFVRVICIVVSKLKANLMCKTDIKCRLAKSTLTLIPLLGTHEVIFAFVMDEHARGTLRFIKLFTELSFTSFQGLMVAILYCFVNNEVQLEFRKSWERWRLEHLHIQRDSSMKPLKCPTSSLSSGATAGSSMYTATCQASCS
human GLP-1R receptor, sequence (P43220 24-463 L260F): as the sequence (P43220 24-463) above, with L237F counted along it

| Compound | EC50 (human GLP-1R receptor) [nM] | EC50 [1] [nM] |
| --- | --- | --- |
| 2-(((1R,5S,6S)-6-(6-((4-Cyano-2-fluorobenzyl)oxy)pyridin-2-yl)-3-azabicyclo[3.1.0]hexan-3-yl)methyl)-4-methoxy-1-(((S)-oxetan-2-yl)methyl)-1H-benzo[d]imidazole-6-carboxylic acid [Example 5] | 240 | 200 |
| COc1cc(C(=O)O)cc2c1nc(CN1C[C@@H]3[C@H](C1)[C@H]3c1nc(OCc3ccc(C#N)cc3F)ccc1F)n2C[C@@H]1CCO1 [Example 1, 2-(((1R,5S,6S)-6-(6-((4-Cyano-2-fluorobenzyl)oxy)-3-fluoropyridin-2-yl)-3-azabicyclo[3.1.0]hexan-3-yl)methyl)-4-methoxy-1-(((S)-oxetan-2-yl)methyl)-1H-benzo[d]imidazole-6-carboxylic acid] | 7.7 | 5 |
| N#Cc1ccc(COc2ccc(F)c([C@H]3[C@@H]4CN(Cc5nc6ccc(C(=O)O)cc6n5C[C@@H]5CCO5)C[C@@H]43)n2)c(F)c1 [Example 2, 2-(((1R,5S,6S)-6-(6-((4-Cyano-2-fluorobenzyl)oxy)-3-fluoropyridin-2-yl)-3-azabicyclo[3.1.0]hexan-3-yl)methyl)-1-(((S)-oxetan-2-yl)methyl)-1H-benzo[d]imidazole-6-carboxylic acid] | 30 | 26 |
| N#Cc1ccc(COc2cccc([C@H]3[C@@H]4CN(Cc5nc6ccc(C(=O)O)cc6n5C[C@@H]5CCO5)C[C@@H]43)n2)c(F)c1 [Example 3, 2-(((1R,5S,6S)-6-(6-((4-Cyano-2-fluorobenzyl)oxy)pyridin-2-yl)-3-azabicyclo[3.1.0]hexan-3-yl)methyl)-1-(((S)-oxetan-2-yl)methyl)-1H-benzo[d]imidazole-6-carboxylic acid] | 75 | 21 |
| COc1cc(C(=O)O)cc2c1nc(CN1C[C@@H]3[C@H](C1)[C@H]3c1cccc(OCc3ccc(C#N)cc3F)n1)n2C[C@@H]1CCO1 [Example 4, 2-(((1R,5S,6S)-6-(6-((4-Cyano-2-fluorobenzyl)oxy)pyridin-2-yl)-3-azabicyclo[3.1.0]hexan-3-yl)methyl)-4-methoxy-1-(((S)-oxetan-2-yl)methyl)-1H-benzo[d]imidazole-6-carboxylic acid] | 12 | 5.8 |
| N#Cc1ccc(COc2cccc([C@H]3[C@@H]4CN(Cc5nc6ccc(C(=O)O)cc6n5C[C@@H]5CCCO5)C[C@@H]43)n2)c(F)c1 [Example 6, 2-(((1R,5S,6S)-6-(6-((4-Cyano-2-fluorobenzyl)oxy)pyridin-2-yl)-3-azabicyclo[3.1.0]hexan-3-yl)methyl)-1-(((S)-tetrahydrofuran-2-yl)methyl)-1H-benzo[d]imidazole-6-carboxylic acid] |  | 290 |
| CCn1cncc1Cn1c(CN2C[C@@H]3[C@H](C2)[C@H]3c2nc(OCc3ccc(C#N)cc3F)ccc2F)nc2c(OC)cc(C(=O)O)cc21 [Example 7, 2-(((1R,5S,6r)-6-(6-((4-Cyano-2-fluorobenzyl)oxy)-3-fluoropyridin-2-yl)-3-azabicyclo[3.1.0]hexan-3-yl)methyl)-1-((1-ethyl-1H-imidazol-5-yl)methyl)-4-methoxy-1H-benzo[d]imidazole-6-carboxylic acid] | 17 | 38 |
| N#Cc1ccc(COc2cccc([C@H]3[C@@H]4CN(Cc5nc6c(Cl)cc(C(=O)O)cc6n5C[C@@H]5CCO5)C[C@@H]43)n2)c(F)c1 [Example 8, 4-Chloro-2-(((1R,5S,6S)-6-(6-((4-cyano-2-fluorobenzyl)oxy)pyridin-2-yl)-3-azabicyclo[3.1.0]hexan-3-yl)methyl)-1-(((S)-oxetan-2-yl)methyl)-1H-benzo[d]imidazole-6-carboxylic acid] | 20 | 10 |
| Cc1cc(C(=O)O)cc2c1nc(CN1C[C@@H]3[C@H](C1)[C@H]3c1cccc(OCc3ccc(C#N)cc3F)n1)n2C[C@@H]1CCO1 [Example 9, 2-(((1R,5S,6S)-6-(6-((4-Cyano-2-fluorobenzyl)oxy)pyridin-2-yl)-3-azabicyclo[3.1.0]hexan-3-yl)methyl)-4-methyl-1-(((S)-oxetan-2-yl)methyl)-1H-benzo[d]imidazole-6-carboxylic acid] | 78 | 56 |
| CCn1cncc1Cn1c(CN2C[C@@H]3[C@H](C2)[C@H]3c2cccc(OCc3ccc(C#N)cc3F)n2)nc2ccc(C(=O)O)cc21 [Example 10, 2-(((1R,5S,6r)-6-(6-((4-Cyano-2-fluorobenzyl)oxy)pyridin-2-yl)-3-azabicyclo[3.1.0]hexan-3-yl)methyl)-1-((1-ethyl-1H-imidazol-5-yl)methyl)-1H-benzo[d]imidazole-6-carboxylic acid] | 42 | 88 |
| COc1cc(C(=O)O)cc2c1nc(CN1C[C@@H]3[C@H](C1)[C@H]3c1cccc(OCc3ccc(Cl)cc3F)n1)n2C[C@@H]1CCO1 [Example 11, 2-(((1R,5S,6S)-6-(6-((4-Chloro-2-fluorobenzyl)oxy)pyridin-2-yl)-3-azabicyclo[3.1.0]hexan-3-yl)methyl)-4-methoxy-1-(((S)-oxetan-2-yl)methyl)-1H-benzo[d]imidazole-6-carboxylic acid] | 17 | 6.5 |
| CCn1cncc1Cn1c(CN2C[C@@H]3[C@H](C2)[C@H]3c2cccc(OCc3ccc(Cl)cc3F)n2)nc2ccc(C(=O)O)cc21 [Example 12, 2-(((1R,5S,6r)-6-(6-((4-Chloro-2-fluorobenzyl)oxy)pyridin-2-yl)-3-azabicyclo[3.1.0]hexan-3-yl)methyl)-1-((1-ethyl-1H-imidazol-5-yl)methyl)-1H-benzo[d]imidazole-6-carboxylic acid] | 97 | 150 |
| CCn1cncc1Cn1c(CN2C[C@@H]3[C@H](C2)[C@H]3c2cccc(OCc3ccc(Cl)cc3F)n2)nc2c(OC)cc(C(=O)O)cc21 [Example 14, 2-(((1R,5S,6r)-6-(6-((4-Chloro-2-fluorobenzyl)oxy)pyridin-2-yl)-3-azabicyclo[3.1.0]hexan-3-yl)methyl)-1-((1-ethyl-1H-imidazol-5-yl)methyl)-4-methoxy-1H-benzo[d]imidazole-6-carboxylic acid] | 30 | 7.4 |
